Assay results from patent publication EP4763838A1, “COMPOUND AND USE THEREOF” (Ocean University of China, priority 2023, dated 2025).

Each molecule was assayed against T1, androgen receptor (AR) (Homo sapiens, UniProt P10275, T878A) (assay: Reduction of androgen receptor (AR) expression levels in LNCaP cells (Western blot, DC50 and Dmax)). Details: 24 h of treatment, 0.01, 0.1, 1 and 10 µM, α-tubulin internal reference.
T1 construct: endogenous in cells; host or cells: LNCaP
Assay type: cell-based
Protocol: The human prostate cancer cell line LNCaP cells selected in this experiment were cultured in an RPMI-1640 culture medium containing 10% fetal bovine serum (Gibco, USA) in an incubator under the conditions of 37°C, 5% CO2 and 95% humidity. When the growth density reached 80%, the cells were inoculated into a 6-well plate with 5×10^5 cells per well. After culturing for 24 h, the culture medium was replaced with a culture medium containing the compounds so that the final concentrations of the compounds were 0.01, 0.1, 1 and 10 µM. After 24 h of treatment, the supernatant was removed, the cells were washed twice with PBS, and a RIPA lysis buffer containing a protease inhibitor and a phosphatase inhibitor was added to the cells. After lysis and centrifugation, the total protein extract was obtained. The concentration of the protein in the extract was determined by using the BCA method.
Protein electrophoresis was performed by using SDS-PAGE, followed by electrotransfer at a constant current of 200 mA for 90 min to transfer proteins onto the PVDF membrane. The PVDF membrane was placed in 5% skim milk and blocked for 1 h at room temperature. An anti-Androgen Receptor antibody [EPR1535(2)] (ab133273)(1:10000) was added for incubation overnight at 4°C. The membrane was washed with TBST for 3 times, with 10 min each time. The mixture of the membrane and a secondary antibody were incubated for 60 min at room temperature. The membrane was washed with TBST for 3 times, with 10 min each time. The ECL light-emitting liquid was dropwise added for exposure. Each sample was simultaneously detected using α-tubulin protein as an internal reference. The protein profile was analyzed for grayscale values using analysis software ImageJ. The gray scale correction value of each sample was calculated by using the formula: gray scale correction value = (gray scale value of the target protein/gray scale value of the corresponding internal reference) […] 10^3. Then, the calculated gray scale correction value was compared with a control gray scale correction value to calculate a degradation rate. Then, nonlinear curve fitting was performed on a logarithmic concentration-inhibition rate using Prism to obtain the DC50 and Dmax values of the compound.
Table 14 summarizes the evaluation of protein degraders PRTA-01 to 06 in reducing AR protein expression levels. DC50 represents the concentration of the protein degrader when it induces AR protein degradation to 50% of the initial level, and the level is classified as A (DC50<1 µM), B (DC50 1~10 µM), or C (DC50>10 µM). Dmax represents the proportion of the maximum degree of […] protein degradation induced by the protein degrader to the total AR protein amount, with the level graded as A (Dmax>85%), B (Dmax85-50%), or C (Dmax<50%). Table 14 Evaluation of protein degraders PRTA-01 to 06 in reducing AR protein expression levels

T1 sequence (P10275 whole entry T878A): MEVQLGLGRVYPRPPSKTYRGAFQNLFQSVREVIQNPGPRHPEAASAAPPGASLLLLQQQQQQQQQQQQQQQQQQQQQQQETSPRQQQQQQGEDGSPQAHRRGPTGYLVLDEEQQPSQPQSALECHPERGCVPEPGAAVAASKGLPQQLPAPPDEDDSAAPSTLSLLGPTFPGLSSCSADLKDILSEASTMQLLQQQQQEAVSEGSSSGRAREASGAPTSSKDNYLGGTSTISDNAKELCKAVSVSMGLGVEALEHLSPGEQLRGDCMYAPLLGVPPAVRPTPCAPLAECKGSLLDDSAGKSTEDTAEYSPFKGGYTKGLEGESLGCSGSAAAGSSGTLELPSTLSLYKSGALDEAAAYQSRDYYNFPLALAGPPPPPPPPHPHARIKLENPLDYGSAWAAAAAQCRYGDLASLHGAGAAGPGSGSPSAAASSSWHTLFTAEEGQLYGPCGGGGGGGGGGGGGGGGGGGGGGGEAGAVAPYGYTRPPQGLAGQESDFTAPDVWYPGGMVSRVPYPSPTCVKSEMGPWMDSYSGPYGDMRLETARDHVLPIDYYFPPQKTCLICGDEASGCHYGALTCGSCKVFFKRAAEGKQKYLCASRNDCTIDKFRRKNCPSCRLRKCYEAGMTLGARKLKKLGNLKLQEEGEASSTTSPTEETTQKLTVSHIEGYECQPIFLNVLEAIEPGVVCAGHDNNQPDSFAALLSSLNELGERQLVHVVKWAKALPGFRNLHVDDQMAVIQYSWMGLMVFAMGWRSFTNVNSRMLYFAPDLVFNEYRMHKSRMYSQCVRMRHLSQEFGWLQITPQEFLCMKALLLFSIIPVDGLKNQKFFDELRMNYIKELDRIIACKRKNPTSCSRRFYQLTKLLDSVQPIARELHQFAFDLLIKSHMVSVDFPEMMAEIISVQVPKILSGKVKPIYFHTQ
T1 sequence (Q96SW2 whole entry partner): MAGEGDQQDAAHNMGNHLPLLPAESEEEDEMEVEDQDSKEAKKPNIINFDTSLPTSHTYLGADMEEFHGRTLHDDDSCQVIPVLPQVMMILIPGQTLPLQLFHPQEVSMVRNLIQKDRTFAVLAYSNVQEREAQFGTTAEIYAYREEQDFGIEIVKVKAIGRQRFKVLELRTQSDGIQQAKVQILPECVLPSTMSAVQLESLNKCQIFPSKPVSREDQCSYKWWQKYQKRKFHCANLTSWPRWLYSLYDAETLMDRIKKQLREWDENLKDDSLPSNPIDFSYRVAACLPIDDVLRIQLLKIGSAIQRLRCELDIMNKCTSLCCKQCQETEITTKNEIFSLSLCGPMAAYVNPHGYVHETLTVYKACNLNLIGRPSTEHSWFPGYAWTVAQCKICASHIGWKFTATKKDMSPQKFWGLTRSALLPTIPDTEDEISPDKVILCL

| SMILES | DC50 [nM] | Dmax [%] |
| --- | --- | --- |
| N#Cc1ccc(O[C@H]2CC[C@H](NC(=O)c3ccc(N4CCC(CN5CCN(c6ccc(N7CCC(=O)NC7=O)nn6)CC5)CC4)nn3)CC2)cc1Cl [PRTA-03] | < 1000 | > 85 |
| N#Cc1ccc(O[C@H]2CC[C@H](NC(=O)c3ccc(N4CCC(CN5CC6(C5)CN(c5ccc(C7CCC(=O)NC7=O)nn5)C6)CC4)cc3)CC2)cc1Cl (stereo partly drawn) [PRTA-05] | < 1000 | 50 to 85 |
| N#Cc1ccc(O[C@H]2CC[C@H](NC(=O)c3ccc(N4CCC(n5cc(C#Cc6ccc(C7CCC(=O)NC7=O)nn6)cn5)CC4)cc3)CC2)cc1Cl (stereo partly drawn) [PRTA-06] | < 1000 | > 85 |
| N#Cc1ccc(OC2CCC(NC(=O)c3ccc(N4CCC(CN5CCN(c6ccc(C7CCC(=O)NC7=O)nn6)CC5)CC4)nn3)CC2)cc1Cl (stereo not drawn) [PRTA-02] | < 1000 | > 85 |
| Cc1cc(N2CCN(CC3CCN(c4ccc(C(=O)N[C@H]5CC[C@H](Oc6ccc(C#N)c(Cl)c6)CC5)nn4)CC3)CC2)nnc1C1CCC(=O)NC1=O (stereo partly drawn) [PRTA-04] | 1000 to 10000 | 50 to 85 |
| N#Cc1ccc(O[C@H]2CC[C@H](NC(=O)c3ccc(N4CCN(CC5CCN(c6ccc(C7CCC(=O)NC7=O)nn6)CC5)CC4)cc3)CC2)cc1Cl (stereo partly drawn) [PRTA-01] | < 1000 | 50 to 85 |
